Entries after “also recorded” stand apart in the source; their conditions may differ. Read-outs that look alike come from different tables or passages of the source.
How the values were obtained:
Assay type in all cases: cell-based, human
hESCs = test: Secondary screen, lowest effective dose on hESCs; conditions: lowest concentration that elicited cytotoxicity, range 0.1 to 50 μM, read-out: ED hESC (lowest effective dose)
Procedure: To expand the number of potential candidate hESC cytotoxic and inhibitory compounds, the complete LOPAC1280™ collection (containing 1,280 compounds) was screened. In the primary screen, cytotoxicity was tested on undifferentiated hESCs (about 3×10^4 BG01 cells) in 16 standard 96-well trays, in DC-HAIF defined medium on growth factor-reduced MATRIGEL™ diluted 1:200, which were fed daily (FIG. 7A). 10 μM of each compound was added to the hESCs one day after plating, and the cells were cultured for an additional 2 days. Plates were then fixed and stained for alkaline phosphatase (AP) to identify relative decreases in proliferation or growth of hESCs (as reduced AP staining), indicative of lower proportions of hESCs. See the circled wells in FIG. 7A.
Using a range of different concentrations from 0.1 to 50 μM, the forty compounds in Table 6 were re-screened (secondary screen) using hESCS and NPCs. The effective dose (ED) was defined as the lowest concentration of a compound that elicited cytotoxicity during the secondary screen. […] The darker wells were indicative of the increased numbers or percentages of proliferating or growing pluripotent stem cells in the wells. In addition, these 40 compounds were screened on differentiating definitive endoderm (DE) cell cultures in 96-well plate impedance assays (described above) to determine which of these compounds were not cytotoxic to definitive endoderm cells at the lowest effective dose on either hESC or NPC. […] See “ACEA DE” column in Table 6.

[1] = test system: differentiating Stage 1 cultures (definitive endoderm); test: Secondary screen on differentiating Stage 1 cultures in 6-well trays; conditions: compounds added to differentiating Stage 1 cultures
Text: The impedance assay on the hESCs using the compounds in Table 4 above gave greater than twenty (20) hits. However, the ideal candidate compound of the present invention should not only be inhibitory or cytotoxic to human pluripotent stem cells, such as hESCs or hIPSCs, but should at the same time have no effect on cell viability of differentiated or differentiating cell populations including Stage 1, 2, 3, 4 and 5 type cells cultures (definitive endoderm, foregut endoderm, posterior foregut, pancreatic endoderm and endocrine cells, respectively). […] Approximately 3×10^4 hES cells were plated per well and grown for 24 hrs in DC-HAIF defined medium (i.e. StemPro® hESC SFM medium (Life Technologies, Carlsbad, Calif.). Stage 1 or definitive endoderm differentiation was then induced by changing the medium and culturing in RPMI, 100 ng/mL Activin A, and 10 ng/mL of FGF2. […] of GSK-3 beta Inhibitor 15 (Calbiochem #361558) as added to the culture for the first 24 hours of differentiation only. 10 μM of each of the candidate compounds were added about 48 hours or 2 days after differentiation was induced (see FIGS. 3 C & D, large arrowhead), and the cells were cultured for an additional 2 days.
Secondary Screen with Selected Compounds. A secondary screen using 9 of the 10 candidate compounds in Table 5 was performed by adding the compounds to differentiating Stage 1 cultures (definitive endoderm) as described above. For the secondary screen, larger standard 6-well trays were used instead of the RT-CEAS 96-well culture plates used in primary screens employing impedance assays. Only 9 of the 10 compounds in Table 5 were tested because the 10th was not available in sufficient quantity at the time the assays were performed. In the larger, 6-well trays, 5 of the 9 compounds listed in Table 5 had no effect on viability of differentiating cells or differentiated definitive endoderm. […] This assay also confirmed that the viability of differentiating cells and differentiated definitive endoderm cells was apparently consistent regardless of the numbers of cells tested, or the size, volume, or source of the culture vessel.

[2] = test system: adherent Stage 1 cell cultures of BG02; test: Q-PCR marker gene expression, adherent Stage 1 cultures of BG02; conditions: for SOX17 gene expression: end of Stage 1, compared to DMSO control (FIG. 4D); for OCT4 and NANOG gene expression: end of Stage 1, compared to DMSO control (FIGS. 4A, 4B); for FOXA2 (HNF3β) expression: end of Stage 1, compared to DMSO control (FIG. 4C)
Text: FIGS. 4A-4G are bar graphs showing the relative gene expression levels of OCT4 (FIG. 4A), NANOG (FIG. 4B), FOXA2 (FIG. 4C), SOX17 (FIG. 4D), SOX7 (FIG. 4E), PAX6 (FIG. 4F) and ZIC1 (FIG. 4G) BG02 with treatment of candidate selective cytotoxic agents from the LOPAC1280™ sublibrary (Table 4) to adherent Stage 1 cell cultures of BG02. Expression levels were normalized using the geometric mean of three housekeeping genes, GUSB, CYCG and TBP. The graphs depict fold regulation compared to the hESC sample. The large arrow heads indicate time of the drug treatment. D=DMSO (control); C=Chelerythrine Chloride; A=AG490; B=BTO-1; De=Dephostatin; S=SU6656.
Screen for Effects on Stages 1-5 Differentiation. To further determine whether these 5 candidate compounds added at Stage 1 affected other differentiated cell types (e.g. Stages 2-5: foregut endoderm, posterior foregut endoderm, pancreatic endoderm and endocrine precursor cells, respectively), hES were differentiated in the presence or absence of compounds, and RNA samples were taken at various stages for gene expression analysis by Q-PCR.
Gene expression levels were plotted relative to a DMSO treated control at the end of Stage 1 (FIG. 4), and relative to undifferentiated hESC aggregates (FIGS. 5 and 6). See “Control” in FIGS. 4, 5 & 6. […] Chelerythrine chloride, Dephostatin, SU 6656 and Tyrphostin AG 490 compounds each caused an increase in SOX17 gene expression as compared to the DMSO control, consistent with the gene expression profile for Stage 1 definitive endoderm cell cultures (FIG. 4D). However, Tyrphostin AG 490 (AG) and SU 6656 (SU) each caused a decrease in FOXA2 (HNF3β) expression as compared to the DMSO control, indicating adverse effects of these two compounds on definitive endoderm (FIG. 4C). Yet none of the compounds appeared to substantially impact expression of non-definitive endoderm markers including SOX7, PAX6 or ZIC1 (FIGS. 4 E, 4F & 4G), and were not, therefore, excluded on the basis of inducing differentiation to other cell types. […] This compound neither decreased OCT4 or NANOG expression, nor increased FOXA2 (HNF3β) or SOX17 expression, as would have been expected of a pluripotent stem cell-selective inhibitor/cytotoxic agent.

Compound | minimal effective concentration (hESCs) [µM] | Viability of Definitive Endoderm [1] | SOX17 gene expression [2] | OCT4 and NANOG gene expression [2] | FOXA2 (HNF3β) expression [2] | minimal effective concentration (hESCs; Homo sapiens) [µM]
22, 23-dihydroavermectin B1a+22,23-dihydroavermectin B1b [Ivermectin] | 5 |  |  |  |  | 
CN(N=O)c1cc(O)ccc1O [Dephostatin] |  | capable of growth and proliferation; also recorded: Viable | increase | subtle relative decrease |  | 
CN(C)S(=O)(=O)c1ccc2c(c1)/C(=C/c1cc3c([nH]1)CCCC3)C(=O)N2 [SU 6656] |  | capable of growth and proliferation; also recorded: Viable | increase | subtle relative decrease | decrease | 25
N#C/C(=C\c1ccc(O)c(O)c1)C(=O)NCc1ccccc1 [Tyrphostin AG 490] | 25 | capable of growth and proliferation; also recorded: Viable | increase | subtle relative decrease | decrease | 
